Counter-ions that a name gives are not always drawn.
What follows are compounds tested against tubulin (Bos taurus, UniProt P81947+Q6B856) (assay: Inhibition of tubulin polymerization (DAPI fluorescence)). Details: MAP-rich tubulin, 30 minutes at 37° C.
Type: biochemical
Method: Lyophilized tubulin (Cytoskeleton #ML113, 1 mg, MAP-rich) was assayed for the effect of the test compound on tubulin polymerization as measured by change in fluorescence for 4′,6-diamidino-2-phenylindole (DAPI) (Barron, D. M. et al. Analytical Biochem., 2003, 315, 49-56). 1 μl of serial dilutions of each test compound (from 100×DMSO stock) was added in 96 well plate format and preincubated for 30 minutes with 94 ul of the non-GTP supplemented tubulin supernatant. 5 μl of DAPI/GTP solution was added to initiate polymerization and incubated for 30 minutes at 37° C. Fluorescence was read with excitation 350 nm, emission wavelength 485 nm on a Tecan Spectraflour Plus. Polymerized tubulin (DMSO and with the tubulin stabilizer Taxol® (paclitaxel)) gives a higher DAPI fluorescence as compared to non-polymerized tubulin (vinblastine and colchicine used to determine baseline).

tubulin, sequence (P81947 whole entry): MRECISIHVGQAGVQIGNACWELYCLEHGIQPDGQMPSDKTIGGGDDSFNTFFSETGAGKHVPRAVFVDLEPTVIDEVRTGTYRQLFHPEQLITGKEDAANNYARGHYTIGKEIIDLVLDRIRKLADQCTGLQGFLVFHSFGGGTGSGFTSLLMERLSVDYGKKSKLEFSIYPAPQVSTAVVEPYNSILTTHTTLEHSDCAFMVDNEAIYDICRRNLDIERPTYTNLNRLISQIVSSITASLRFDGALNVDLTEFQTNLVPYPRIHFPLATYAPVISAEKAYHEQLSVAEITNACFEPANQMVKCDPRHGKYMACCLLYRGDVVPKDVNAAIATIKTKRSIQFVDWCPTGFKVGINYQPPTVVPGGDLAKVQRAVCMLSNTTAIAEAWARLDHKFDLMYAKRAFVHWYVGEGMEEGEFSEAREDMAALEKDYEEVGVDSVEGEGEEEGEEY
tubulin, sequence (Q6B856 whole entry): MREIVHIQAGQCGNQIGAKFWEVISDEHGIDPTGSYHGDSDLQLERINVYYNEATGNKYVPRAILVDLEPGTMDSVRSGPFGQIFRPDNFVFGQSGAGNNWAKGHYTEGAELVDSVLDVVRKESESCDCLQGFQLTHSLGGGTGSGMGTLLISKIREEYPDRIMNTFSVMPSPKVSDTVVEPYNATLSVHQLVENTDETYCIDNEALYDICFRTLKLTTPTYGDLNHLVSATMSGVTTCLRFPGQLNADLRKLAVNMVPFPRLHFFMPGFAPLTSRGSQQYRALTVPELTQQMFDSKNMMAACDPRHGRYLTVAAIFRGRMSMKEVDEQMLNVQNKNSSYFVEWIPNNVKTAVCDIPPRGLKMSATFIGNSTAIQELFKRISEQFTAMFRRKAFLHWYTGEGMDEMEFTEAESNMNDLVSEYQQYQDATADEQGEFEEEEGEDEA

Structure (SMILES) | IC50 [µM]
Cc1ccc(N(C)c2nc(Cl)nc3ccccc23)cc1 [Example 2, (2-Chloro-quinazolin-4-yl)-(4-methyl-phenyl)-methyl-amine] | 3
CN(c1ccccc1)c1nc(Cl)nc2ccccc12 [Example 6, (2-Chloro-quinazolin-4-yl)-phenyl-methyl-amine] | 4
COc1ccc(N(C)c2nc(NC/C=C(\C)CCC=C(C)C)nc3ccccc23)cc1 [Example 13, N^2-(3,7-Dimethyl-octa-2,6-dienyl)-N^4-(4-methoxy-phenyl)-N^4-methyl-quinazoline-2,4-diamine] | 6
COc1ccc(N(C)c2ncnc3ccccc23)cc1 [Example 34, (4-Methoxy-phenyl)-methyl-quinazolin-4-yl-amine] | 1

These compounds were tested on P388 murine leukemia cell line (assay: P388 cytotoxicity (ATP-Lite, 72 hours)). Details: Mus musculus, P388, 72 hours.
Type: cell-based
Method: A P388 murine leukemia cell line was obtained from NCI, Frederick, Md. P388 cells were cultured in RPMI-1640 supplemented with 10% fetal bovine serum, 2 mM Glutamax, 1 mM sodium pyruvate, 0.1 mM non-essential amino acids and 10 mM HEPES. Cells were grown at 37° C. in a humidified 5% CO2 atmosphere. Exponentially growing P388 cells were plated at 5,000 cells/well in a 96-well flat-bottomed microtiter plate (Corning, Costar #3595). […] Cellular viability was determined 72 hours later by measuring intracellular ATP with ATP-Lite assay system. The effect of compounds on cell viability was calculated by comparing the ATP levels of cells exposed to test compound with those of cells exposed to DMSO. […] Data was analyzed by Prism software (GraphPad; San Diego, Calif.) by fitting it to a sigmoidal dose response curve.

Structure (SMILES) | IC50 [nM]
CNCCCNc1nc(N(C)c2ccc(OC)cc2)c2ccccc2n1 [Example 228, N^4-(4-Methoxy-phenyl)-N^4-methyl-N^2-(3-methylamino-propyl)-quinazoline-2,4-diamine] | 900
COc1ccc(N(C)c2nc(CN)nc3cccc(F)c23)cc1 [Example 229, (2-Aminomethyl-5-fluoro-quinazolin-4-yl)-(4-methoxy-phenyl)-methyl-amine] | 5
CN(c1ccc(O)cc1)c1nc(CN)nc2ccccc12 [Example 230, 4-[(2-Aminomethyl-quinazolin-4-yl)-methyl-amino]-phenol] | 1700
COc1ccc(N(C)c2nc(C(C)(C)C#N)nc3ccccc23)cc1 [Example 231, 2-{4-[(4-Methoxy-phenyl)-methyl-amino]-quinazolin-2-yl}-2-methyl-propionitrile] | 37
COc1ccc(N(C)c2nc(CNC(=O)CCC(=O)O)nc3ccccc23)cc1 [Example 232, N-{4-[(4-Methoxy-phenyl)-methyl-amino]-quinazolin-2-ylmethyl}-succinamic acid] | 950
CNCc1nc(N(C)c2ccc(OC)cc2)c2ccccc2n1 [Example 233, (4-Methoxy-phenyl)-methyl-(2-methylaminomethyl-quinazolin-4-yl)-amine] | 1100
COc1ccc(N(C)c2nc(CN)nc3ccccc23)cc1F [Example 234, (2-Aminomethyl-quinazolin-4-yl)-(3-fluoro-4-methoxy-phenyl)-methyl-amine] | 11
CCOc1ccc(N(C)c2nc(CN)nc3ccccc23)cc1F [Example 235, (2-Aminomethyl-quinazolin-4-yl)-(4-ethoxy-3-fluoro-phenyl)-methyl-amine] | 5
COc1ccc(N(C)c2nc(C)nc3ccc(NS(=O)(=O)c4ccc(OC)cc4)cc23)cc1 [Example 236, 4-Methoxy-N-{4-[(4-methoxy-phenyl)-methyl-amino]-2-methyl-quinazolin-6-yl}-benzenesulfonamide] | 680
CCOc1ccc(N(C)c2nc(CN)nc3ccccc23)c(F)c1 [Example 237, (2-Aminomethyl-quinazolin-4-yl)-(4-ethoxy-2-fluoro-phenyl)-methyl-amine] | 15
COc1ccc(N(C)c2nc(CNC(=O)[C@H](C)N)nc3ccccc23)cc1 [Example 238, (S)-2-Amino-N-{4-[(4-methoxy-phenyl)-methyl-amino]-quinazolin-2-ylmethyl}-propionamide] | 12
CCOc1ccc(N(C)c2nc(CN)nc3cccc(F)c23)cc1 [Example 239, (2-Aminomethyl-5-fluoro-quinazolin-4-yl)-(4-ethoxy-phenyl)-methyl-amine] | 22
COc1ccc(N(C)c2nc(CN)nc3ccccc23)cc1Cl [Example 240, (2-Aminomethyl-quinazolin-4-yl)-(3-chloro-4-methoxy-phenyl)-methyl-amine] | 6
COc1ccc(N(C)c2nc(CN)nc3ccc(-c4ccc(Cl)cc4)cc23)cc1 [Example 241, [2-Aminomethyl-6-(4-chloro-phenyl)-quinazolin-4-yl]-(4-methoxy-phenyl)-methyl-amine] | 1440
COc1ccc(N(C)c2nc(CCl)nc3ccccc23)cc1Cl [Example 242, (3-Chloro-4-methoxy-phenyl)-(2-chloromethyl-quinazolin-4-yl)-methyl-amine] | 10
COc1ccc(N(C)c2nc(CN)nc3ccc(-c4ccccc4)cc23)cc1 [Example 243, (2-Aminomethyl-6-phenyl-quinazolin-4-yl)-(4-methoxy-phenyl)-methyl-amine] | 4200
COc1ccc(N(C)c2nc(CNC(=O)c3cccnc3)nc3ccccc23)cc1 [Example 244, N-{4-[(4-Methoxy-phenyl)-methyl-amino]-quinazolin-2-ylmethyl}-nicotinamide] | 58

Structure (SMILES) | IC50 [nM]
COc1ccc(N(C)c2nc(C)nc3ccc(Br)cc23)cc1 [Example 245, (6-Bromo-2-methyl-quinazolin-4-yl)-(4-methoxy-phenyl)-methyl-amine] | 2
CCOc1ccc(N(C)c2nc(C)nc3ccc(Br)cc23)cc1F [Example 246, (6-Bromo-2-methyl-quinazolin-4-yl)-(4-ethoxy-3-fluoro-phenyl)-methyl-amine] | 11
COc1ccc(N(C)c2nc(-c3nnn[nH]3)nc3ccccc23)cc1 [Example 247, (4-Methoxy-phenyl)-methyl-[2-(1H-tetrazol-5-yl)-quinazolin-4-yl]-amine] | 60
COc1ccc(N(C)c2nc(CNC(=O)[C@@H](C)N)nc3ccccc23)cc1 [Example 248, (R)-2-Amino-N-{4-[(4-methoxy-phenyl)-methyl-amino]-quinazolin-2-ylmethyl}-propionamide] | 222
COc1ccc(N(C)c2nc(C)nc3ccc(C#N)cc23)cc1 [Example 249, 4-[(4-Methoxy-phenyl)-methyl-amino]-2-methyl-quinazoline-6-carbonitrile] | 20
CCOc1ccc(N(C)c2nc(CN)nc3cccc(F)c23)c(F)c1 [Example 250, (2-Aminomethyl-5-fluoro-quinazolin-4-yl)-(4-ethoxy-2-fluoro-phenyl)-methyl-amine] | 22
COc1c(Cl)cc(N(C)c2nc(CCl)nc3ccccc23)cc1Cl [Example 251, (2-Chloromethyl-quinazolin-4-yl)-(3,5-dichloro-4-methoxy-phenyl)-methyl-amine] | 2080
COc1ccc(N(C)c2nc(CN3CCCCC3=O)nc3ccccc23)cc1 [Example 252, 1-{4-[(4-Methoxy-phenyl)-methyl-amino]-quinazolin-2-ylmethyl}-piperidin-2-one] | 1000
CCOc1ccc(N(C)c2nc(C)nc3ccccc23)cc1F [Example 253, (4-Ethoxy-3-fluoro-phenyl)-methyl-(2-methyl-quinazolin-4-yl)-amine] | 3
COc1c(Cl)cc(N(C)c2nc(CN)nc3ccccc23)cc1Cl [Example 254, (2-Aminomethyl-quinazolin-4-yl)-(3,5-dichloro-4-methoxy-phenyl)-methyl-amine bis(hydrochloride)] | 5200
COc1ccc(N(C)c2nc(CN3CCCC3=O)nc3ccccc23)cc1 [Example 255, 1-{4-[(4-Methoxy-phenyl)-methyl-amino]-quinazolin-2-ylmethyl}-pyrrolidin-2-one] | 610
COc1ccc(N(C)c2nc(CNCCCO)nc3ccccc23)cc1 [Example 256, 3-({4-[(4-Methoxy-phenyl)-methyl-amino]-quinazolin-2-ylmethyl}-amino)-propan-1-ol] | 1800
CCOc1c(Cl)cc(N(C)c2nc(CCl)nc3ccccc23)cc1Cl [Example 257, (2-Chloromethyl-quinazolin-4-yl)-(3,5-dichloro-4-ethoxy-phenyl)-methyl-amine] | 2400
CCOc1ccc(N(C)c2nc(CCl)nc3ccccc23)cc1Cl [Example 258, (3-Chloro-4-ethoxy-phenyl)-(2-chloromethyl-quinazolin-4-yl)-methyl-amine] | 15
COc1ccc(N(C)c2nc(C)nc3ccc(CN)cc23)cc1 [Example 259, (6-Aminomethyl-2-methyl-quinazolin-4-yl)-(4-methoxy-phenyl)-methyl-amine] | 773
CCOc1ccc(N(C)c2nc(CN3C(=O)c4ccccc4C3=O)nc3ccccc23)cc1Cl [Example 260, 2-{4-[(3-Chloro-4-ethoxy-phenyl)-methyl-amino]-quinazolin-2-ylmethyl}-isoindole-1,3-dione] | 469
CCOc1ccc(N(C)c2nc(CN)nc3ccccc23)cc1Cl [Example 261] | 9

What follows are compounds tested on T-47D cells (assay: Caspase cascade activation / induction of apoptosis in T-47D cells (fluorogenic N-(Ac-DEVD)-N'-ethoxycarbonyl-R110 substrate)). Details: Homo sapiens, T47D, 24 h, read-out: T-47D (24 hr) EC50 (nM).
Type: cell-based, human

Structure (SMILES) | EC50 [nM]
CN(c1ccccc1)c1nc(Cl)nc2ccccc12 [Example 6, (2-Chloro-quinazolin-4-yl)-phenyl-methyl-amine] | 219

Same assay, conditions: Homo sapiens, T47D, read-out: Caspase activation (EC50 nM)

Structure (SMILES) | EC50 [nM]
CN(c1ccccc1)c1nc(Cl)nc2ccccc12 [Example 6, (2-Chloro-quinazolin-4-yl)-phenyl-methyl-amine] | 219

Same assay, conditions: Homo sapiens, T47D; T-47D, 24 hr; read-out: T-47D (24 hr) EC50

Structure (SMILES) | EC50 [nM]
Cc1ccc(N(C)c2nc(Cl)nc3ccccc23)cc1 [Example 2, (2-Chloro-quinazolin-4-yl)-(4-methyl-phenyl)-methyl-amine] | 31
COc1ccc(N(C)c2nc(NC/C=C(\C)CCC=C(C)C)nc3ccccc23)cc1 [Example 13, N^2-(3,7-Dimethyl-octa-2,6-dienyl)-N^4-(4-methoxy-phenyl)-N^4-methyl-quinazoline-2,4-diamine] | 260

Same assay, conditions: Homo sapiens, T47D; Table III; time not given, repeats 24 hr or 48 hr T-47D values of Table I; read-out: Caspase activation (EC50 nM)

Structure (SMILES) | EC50 [nM]
Cc1ccc(N(C)c2nc(Cl)nc3ccccc23)cc1 [Example 2, (2-Chloro-quinazolin-4-yl)-(4-methyl-phenyl)-methyl-amine] | 31
COc1ccc(N(C)c2nc(NC/C=C(\C)CCC=C(C)C)nc3ccccc23)cc1 [Example 13, N^2-(3,7-Dimethyl-octa-2,6-dienyl)-N^4-(4-methoxy-phenyl)-N^4-methyl-quinazoline-2,4-diamine] | 260

Source: US20130029942A1, “COMPOUNDS AND THERAPEUTICAL USES THEREOF” (Myrexis, Inc., priority 2003, published 2013)
